# According to patent US9708340B2, “Urea derivatives and their use as fatty-acid binding protein (FABP) inhibitors” (Hoffmann-La Roche Inc., priority 2013, dated 2017):
# Columns and labels:
# human FABP4 (huFABP4) = human FABP4 (huFABP4) (Homo sapiens (Human), UniProt P15090); assay: Tb TR-FRET assay, binding of Bodipy labeled fatty acid to His6 tagged huFABP4; details: 50 nM FABP protein, […] Bodipy labeled fatty acid; read-out: IC50 h-fabp4-ecoli-r
# human FABP5 (huFABP5) = human FABP5 (huFABP5) (Homo sapiens (Human), UniProt Q01469); assay: Tb TR-FRET assay, binding of Bodipy labeled fatty acid to His6 tagged huFABP5; details: 50 nM FABP protein, […] Bodipy labeled fatty acid; read-out: IC50 h-fabp5-ecoli-r
# human FABP5 (huFABP5), sequence (Q01469 whole entry): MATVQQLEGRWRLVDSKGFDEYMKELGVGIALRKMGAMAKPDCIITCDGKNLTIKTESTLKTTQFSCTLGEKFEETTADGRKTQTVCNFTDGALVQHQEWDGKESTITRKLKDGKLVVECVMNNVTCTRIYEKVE
# human FABP4 (huFABP4), sequence (P15090 whole entry): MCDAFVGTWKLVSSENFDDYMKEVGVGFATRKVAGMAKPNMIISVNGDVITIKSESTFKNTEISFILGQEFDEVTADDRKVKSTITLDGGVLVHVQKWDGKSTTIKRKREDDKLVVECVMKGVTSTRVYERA
SMILES,IC50 (human FABP4 (huFABP4)) [µM],IC50 (human FABP5 (huFABP5)) [µM]
"O=C(O)[C@H]1CCN1C(=O)Nc1cc(Cl)ccc1-c1cccc(F)c1F [Example 36, (R)-1-(4-chloro-2′,3′-difluorobiphenyl-2-ylcarbamoyl)azetidine-2-carboxylic acid]",0.06,> 50
"O=C(O)[C@H]1CCN1C(=O)Nc1cc(Cl)ccc1-c1ccccc1F [Example 37, (R)-1-(4-chloro-2′-fluorobiphenyl-2-ylcarbamoyl)azetidine-2-carboxylic acid]",0.03,> 50
"O=C(O)[C@H]1CCN1C(=O)Nc1cc(Cl)ccc1-c1cccc(F)c1 [Example 38, (R)-1-(4-chloro-3′-fluorobiphenyl-2-ylcarbamoyl)azetidine-2-carboxylic acid]",0.03,> 50
"O=C(O)[C@H]1CCN1C(=O)Nc1cc(Cl)ccc1-c1cc(F)cc(F)c1 [Example 39, (R)-1-(4-chloro-3′,5′-difluorobiphenyl-2-ylcarbamoyl)azetidine-2-carboxylic acid]",0.06,> 50
"O=C(O)[C@H]1CCCN1C(=O)Nc1cc(Cl)ccc1-c1ccsc1 [Example 52, (R)-1-(5-chloro-2-(thiophen-3-yl)phenylcarbamoyl)pyrrolidine-2-carboxylic acid]",0.06,> 10.4
"O=C(O)[C@H]1CCCN1C(=O)Nc1cc(Cl)ccc1-c1csc2ccccc12 [Example 53, (R)-1-(2-(benzo[b]thiophen-3-yl)-5-chlorophenylcarbamoyl)pyrrolidine-2-carboxylic acid]",0.34,42.2
"O=C(O)[C@H]1CCCN1C(=O)Nc1cc(Cl)ccc1-c1ccc(F)cc1 [Example 54, (R)-1-(4-chloro-4′-fluorobiphenyl-2-ylcarbamoyl)pyrrolidine-2-carboxylic acid]",0.06,> 29.6
"O=C(O)[C@H]1CCCN1C(=O)Nc1cc(Cl)ccc1-c1cccc(Cl)c1 [Example 55, (R)-1-(3′,4-dichlorobiphenyl-2-ylcarbamoyl)pyrrolidine-2-carboxylic acid]",0.77,> 50
"NC(=O)c1cccc(-c2ccc(Cl)cc2NC(=O)N2CCC[C@@H]2C(=O)O)c1 [Example 56, (R)-1-(3′-carbamoyl-4-chlorobiphenyl-2-ylcarbamoyl)pyrrolidine-2-carboxylic acid]",11.1,> 50
"O=C(O)[C@H]1CCCN1C(=O)Nc1cc(Cl)ccc1C1=CCCCC1 [Example 57, (R)-1-[5-chloro-2-(cyclohexen-1-yl)phenylcarbamoyl]pyrrolidine-2-carboxylic acid]",1.1,> 50
"O=C(O)[C@H]1CCCN1C(=O)Nc1cc(Cl)ccc1-c1ccncc1 [Example 58, (R)-1-(5-chloro-2-(pyridin-4-yl)phenylcarbamoyl)pyrrolidine-2-carboxylic acid]",2,> 50
"O=C(O)[C@H]1CCCN1C(=O)Nc1cc(Cl)ccc1-c1ccc(Cl)cc1 [Example 59, (R)-1-(4,4′-dichlorobiphenyl-2-ylcarbamoyl)pyrrolidine-2-carboxylic acid]",2.08,> 50
"COc1ccc(-c2ccc(Cl)cc2NC(=O)N2CCC[C@@H]2C(=O)O)cc1 [Example 60, (R)-1-(4-chloro-4′-methoxybiphenyl-2-ylcarbamoyl)pyrrolidine-2-carboxylic acid]",3.45,> 50
"Cc1ccccc1-c1ccc(Cl)cc1NC(=O)N1CCC[C@@H]1C(=O)O [Example 61, (R)-1-(4-chloro-2′-methylbiphenyl-2-ylcarbamoyl)pyrrolidine-2-carboxylic acid]",2.75,> 50
"CCc1ccc(-c2ccccc2)c(NC(=O)N2CCC[C@@H]2C(=O)O)c1 [Example 62, (R)-1-(4-ethylbiphenyl-2-ylcarbamoyl)pyrrolidine-2-carboxylic acid]",1.86,> 50
